In assay [1] the test system is Rhinovirus 16. Briefly: Rhinovirus 16 infection of NCI-H292 airway epithelial cells, quantified by viral plaque assay on HeLa cells. The note with it: AG 1478 10 μM; RV16 MOI 10; NCI-H292 cell lysates; n=2. Format: cell-based, Rhinovirus 16 (major group) in human NCI-H292 cells. How it is done: The effect of an EGF-R inhibitor on rhinovirus infectivity was assayed. First, human airway epithelial (NCI-H292 American Type Culture Collection Catalog No. CRL-1848) cells were treated with Rhinovirus 16 (major group Rhinovirus (RV) at multiplicity of infection (MOI) 10) or RV16 plus a selective EGFR tyrosine kinase inhibitor (AG 1478) at 10 μM. Cell lysates from these NCI-H292 cell cultures were collected at […]. To quantitate Rhinovirus infection in airway epithelial cells, cell lysates were analyzed by viral plaque assay, a technique that is commonly utilized to measure viral infection. Next, serial dilutions of NCI-H292 cell lysates were placed on HeLa cell cultures for a standard plaque assay. Cell cultures were covered with an agarose overlay. Cultures were incubated for three days. After three days, cell cultures were stained with crystal violet and the number of plaques was counted. […] FIG. 1A. […]
The effect of an antibody specific for EGF-R on Rhinovirus 16 (RV16) infection was also assessed. […]
FIGS. 1A and 1B. Viral quantification of Rhinovirus infection by plaque assay. […] Cell lysates were collected after 24 h and Rhinovirus infection was quantified by plaque assay [(A) n=2±SEM; (B) n=1].

The test system of assay [2] is Rhinovirus 16. Briefly: Rhinovirus 16 infection of HeLa cells measured by flow cytometry. In kind it is cell-based, Rhinovirus 16 (major group) in HeLa cells. The settings on record: RV16 MOI 10, 6 h, RV alone 62%, control 1%. Here is the method: HeLa is an epithelial cell line that is routinely used to evaluate Rhinovirus infection. HeLa; American Type Culture Collections (ATCC) No. CCL-2. Here, HeLa cell cultures were treated with serum-free medium (Control), or with serum-free medium containing Rhinovirus 16 (major group RV at multiplicity of infection (MOI) 10) with and without a selective EGFR tyrosine kinase inhibitor (AG 1478). After 6 h, cell cultures were collected and stained with a monoclonal antibody that selectively binds to Rhinovirus. Cells were processed for flow cytometry and Rhinovirus infection in HeLa cells was measured. The data, shown in FIG. 2, are expressed as percent infected cells. Control (no RV): 1%; RV: 62%; RV+AG1478 (5 μM): 13%; and RV+AG1478 (10 μM): 9%. […] No effect with a platelet derived growth factor (PDGF) inhibitor (another tyrosine kinase inhibitor) was observed.

Assay [3] concerns Influenza A/H1N1/PR8. Format: cell-based. The settings on record: 10 μM; 24 h; MOI~1; eight fields at 20×; n=4; Influenza alone 316±19 cells; p<0.0001.
For assay [4], the system named is respiratory syncytial virus (RSV). Briefly: RSV infection of epithelial HeLa cell cultures, viral quantification by TCID50. Format: cell-based. How it is done: To study the effect of a selective EGFR inhibitor on RSV infection, viral quantification by tissue culture-infective dose (TCID50)/100 μL in epithelial HeLa cell cultures treated with or without the selective EGFR tyrosine kinase inhibitor AG 1478 was used. […] FIG. 4A, RSV alone 10^2.5±1 TCID50 vs RSV plus AG 1478 (10 μM) 0 TCID50; n=2. FIG. 4B, RSV alone 10^4.38±0.1 TCID50 vs RSV plus AG 1478 (1 μM) 0 TCID50; n=2.
FIGS. 4A and 4B. Viral quantification by tissue culture-infective dose (TCID50)/100 μL in epithelial cell cultures treated with or without the selective EGFR inhibitor, AG 1478 [(A) AG1478 (10 μM) in TCID50/100 μL at 2 days ±SEM, (n=2 separate experiments); (B) AG 1478 (1 μM) in TCID50/100 μL at 4 days ±SEM, (n=2 separate experiments).
A similar set of experiments was conducted, to test the effect of Gefitinib (Iressa; ZD 1839; N-(3-chloro-4-fluoro-phenyl)-7-methoxy-6-(3-morpholin-4-ylpropoxy)quinazolin-4-amine) on RSV infection. Gefitinib (1 and 10 μM) suppressed RSV virus infection. The data are shown in FIG. 5 (RSV alone 10^1.5 TCID50 (first column), RSV plus Gefitinib (1 μM) 0 TCID50 (second column), and RSV plus Gefitinib (10 μM) 0 TCID50 (third column); n=1).
FIG. 5. Viral quantification by tissue culture-infective dose (TCID50)/100 μL at 2 days in epithelial cell cultures treated with or without the selective EGFR inhibitor, Gefitinib. RSV alone (first column), RSV plus Gefitinib (1 μM, second column), and RSV plus Gefitinib (10 μM, third column); n=1.

In the case of `COc1cc2ncnc(Nc3cccc(Cl)c3)c2cc1OC` [AG 1478, 4-(3-chlorophenylamino)-6,7-dimethoxyquinazoline], in assay [1], the “Rhinovirus infection by plaque assay” value was “suppress rhinovirus infection”. The percent infected cells in assay [2] (5 μM) amounted to 13%; in assay [2] (10 μM) it was 9%. The “cells staining positive for Influenza” value in assay [3] is 94±49 cells. Further, the “RSV tissue culture-infective dose (TCID50)” value was found to be 0 TCID50/100 μL in assay [4] (1 μM, at 4 days, HeLa, RSV alone 10^4.38±0.1, n=2) and 0 TCID50/100 μL in assay [4] (10 μM, at 2 days, HeLa).

For `COc1cc2ncnc(Nc3ccc(F)c(Cl)c3)c2cc1OCCCN1CCOCC1` [Gefitinib, N-(3-chloro-4-fluoro-phenyl)-7-methoxy-6-(3-morpholin-4-ylpropoxy)quinazolin-4-amine], the “RSV tissue culture-infective dose (TCID50)” value in assay [4] (1 μM, at 2 days, RSV alone 10^1.5, n=1) worked out at 0 TCID50/100 μL; in assay [4] (10 μM, at 2 days, HeLa) it was 0 TCID50/100 μL.

(Values after patent US20110236349A1, “Use of Epidermal Growth Factor Inhibitors in the Treatment of Viral Infection” (priority 2008, published 2011).)
